By IC50 is commonly meant the concentration that inhibits the measured activity by half. As usually defined, the inhibition is the percentage by which the read-out fell short of the control.

In ChEMBL document CHEMBL2146425, “Solid-phase synthesis and biological evaluation of Joro spider toxin-4 from Nephila clavata” (J Nat Prod, 2011) one finds IC50 and inhibition data, which are given here for 2 compounds.

Assay [1] deals with Glutamate NMDA receptor; Grin1/Grin2a (Rattus norvegicus, UniProt P35439+Q00959). Put plainly: Inhibition of rat GluN1/2A expressed in xenopus laevis oocytes assessed as inhibition of glycine-evoked current at membrane potential of -60 mV by voltage-clamp electrophysiology. It counts as cell-based, Oocyte.
Another assay deals with Glutamate receptor 1 (Rattus norvegicus, UniProt P19490). Put plainly: Inhibition of rat GluA1 expressed in xenopus laevis oocytes assessed as inhibition of glutamate-evoked current at membrane potential of -60 mV by voltage-clamp electrophysiology. It counts as cell-based, Oocyte.
For assay [2], the target named is Glutamate NMDA receptor; Grin1/Grin2a (Rattus norvegicus) (UniProt P35439+Q00959). In words: Inhibition of rat GluN1/2A expressed in xenopus laevis oocytes assessed as inhibition of glycine-evoked current at membrane potential of -60 mV at 100 uM by voltage-clamp electrophysiology. It counts as cell-based. Particulars: Oocyte.
The target of assay [3] is Glutamate receptor 1 (Rattus norvegicus) (UniProt P19490). In words: Inhibition of rat GluA1 expressed in xenopus laevis oocytes assessed as inhibition of glutamate-evoked current at membrane potential of -60 mV at 100 uM by voltage-clamp electrophysiology. It counts as cell-based. The note with it: Oocyte.
Glutamate receptor 1 (Rattus norvegicus), sequence (P19490 whole entry): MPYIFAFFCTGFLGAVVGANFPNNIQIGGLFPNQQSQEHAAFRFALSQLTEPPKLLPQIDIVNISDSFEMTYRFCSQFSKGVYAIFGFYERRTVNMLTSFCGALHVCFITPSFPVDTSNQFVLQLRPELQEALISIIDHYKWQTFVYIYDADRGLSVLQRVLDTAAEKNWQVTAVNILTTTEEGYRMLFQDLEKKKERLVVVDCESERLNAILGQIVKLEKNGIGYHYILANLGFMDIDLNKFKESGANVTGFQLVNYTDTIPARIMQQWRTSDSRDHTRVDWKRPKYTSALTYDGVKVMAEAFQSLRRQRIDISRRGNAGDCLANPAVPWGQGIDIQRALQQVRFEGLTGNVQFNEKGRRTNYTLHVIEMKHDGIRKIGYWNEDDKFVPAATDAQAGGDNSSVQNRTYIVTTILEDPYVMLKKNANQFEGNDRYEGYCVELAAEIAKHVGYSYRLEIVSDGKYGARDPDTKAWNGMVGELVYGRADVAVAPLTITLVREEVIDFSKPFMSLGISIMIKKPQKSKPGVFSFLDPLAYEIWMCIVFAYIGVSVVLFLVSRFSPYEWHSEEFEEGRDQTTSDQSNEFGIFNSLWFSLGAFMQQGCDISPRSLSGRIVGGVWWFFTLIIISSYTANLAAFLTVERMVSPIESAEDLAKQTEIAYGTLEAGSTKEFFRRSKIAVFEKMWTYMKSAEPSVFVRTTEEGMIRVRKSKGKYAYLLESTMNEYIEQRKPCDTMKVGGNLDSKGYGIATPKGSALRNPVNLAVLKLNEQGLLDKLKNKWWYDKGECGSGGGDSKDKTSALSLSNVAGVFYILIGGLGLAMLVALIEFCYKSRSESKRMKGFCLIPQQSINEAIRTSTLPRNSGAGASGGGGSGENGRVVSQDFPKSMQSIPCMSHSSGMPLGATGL

Glutamate receptor 1, sequence (P19490 whole entry): as above

As for `N=C(N)NCCC[C@H](N)C(=O)NCCCNCCCNCCCCCNC(=O)[C@H](CC(N)=O)NC(=O)Cc1ccc(O)cc1O`, the IC50 in assay [1] is 74 nM; on Glutamate receptor 1 it was 77 nM.
On to `N=C(N)NCCC[C@H](N)C(=O)N[C@@H](CCCN)C(=O)NCCCCCNC(=O)[C@H](CC(N)=O)NC(=O)Cc1ccc(O)cc1O`, for which the inhibition in assay [2] and in assay [3] was 25% throughout.
